How the values were obtained:
[1] = Competitive inhibition of Listeria monocytogenes C-terminal His6-tagged NADK1 expressed in Escherichia coli BL21(DE3) assessed as reduction in NADP production using varying levels of NAD as substrate by glucose-6-phosphate dehydrogenase coupled enzyme based spectrophotometric method
[2] = Cytotoxicity against human MRC5 cells up to 1 x 10^-4M; type: toxicity, cell-based
NAD kinase [3] = target: T1, NAD kinase (Homo sapiens, UniProt O95544); assay: Inhibition of human NADK expressed in Escherichia coli BL21(DE3) assessed as reduction in NADP production using NAD as substrate by glucose-6-phosphate dehydrogenase coupled enzyme based spectrophotometric method
T1 sequence (O95544 whole entry): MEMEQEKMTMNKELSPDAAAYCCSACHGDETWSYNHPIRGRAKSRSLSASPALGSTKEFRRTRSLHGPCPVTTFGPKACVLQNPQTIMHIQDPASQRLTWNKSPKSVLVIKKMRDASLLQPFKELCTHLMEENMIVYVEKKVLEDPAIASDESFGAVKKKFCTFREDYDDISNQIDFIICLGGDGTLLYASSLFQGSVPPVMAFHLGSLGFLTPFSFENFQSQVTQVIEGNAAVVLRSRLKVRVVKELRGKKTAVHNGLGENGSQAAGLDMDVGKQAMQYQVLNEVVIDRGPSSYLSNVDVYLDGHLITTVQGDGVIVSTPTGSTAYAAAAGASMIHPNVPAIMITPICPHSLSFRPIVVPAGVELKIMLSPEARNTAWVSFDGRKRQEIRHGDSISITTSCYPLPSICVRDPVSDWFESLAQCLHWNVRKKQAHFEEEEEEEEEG

NAD kinase [4] = target: T2, NAD kinase (Staphylococcus aureus (strain COL), UniProt Q5HH78); assay: Inhibition of Staphylococcus aureus COL NADK expressed in Escherichia coli BL21(DE3) assessed as reduction in NADP production using NAD as substrate by glucose-6-phosphate dehydrogenase coupled enzyme based spectrophotometric method; parameters: species or system Staphylococcus aureus subsp. aureus COL
T2 sequence (Q5HH78 whole entry): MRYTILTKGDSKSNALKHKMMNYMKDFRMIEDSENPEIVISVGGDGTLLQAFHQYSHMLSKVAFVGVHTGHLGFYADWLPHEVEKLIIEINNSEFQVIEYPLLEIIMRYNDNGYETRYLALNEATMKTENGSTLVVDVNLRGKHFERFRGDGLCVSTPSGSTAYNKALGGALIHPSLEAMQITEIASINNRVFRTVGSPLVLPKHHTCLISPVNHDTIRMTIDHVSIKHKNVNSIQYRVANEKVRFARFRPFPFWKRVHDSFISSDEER

Listeria monocytogenes = assay: Inhibition of Listeria monocytogenes C-terminal His6-tagged NADK1 expressed in Escherichia coli BL21(DE3) assessed as reduction in NADP production at 300 uM using NAD as substrate by glucose-6-phosphate dehydrogenase coupled enzyme based spectrophotometric method relative to control relative to control
[5] = target: T3, NAD kinase (Homo sapiens) (UniProt O95544); assay: Inhibition of human NADK expressed in Escherichia coli BL21(DE3) assessed as reduction in NADP production at 500 uM using NAD as substrate by glucose-6-phosphate dehydrogenase coupled enzyme based spectrophotometric method relative to control
T3 sequence (whole entry): T1 sequence (O95544 whole entry)

[6] = target: T3, NAD kinase (Homo sapiens); assay: Inhibition of human NADK expressed in Escherichia coli BL21(DE3) assessed as reduction in NADP production at 250 uM using NAD as substrate by glucose-6-phosphate dehydrogenase coupled enzyme based spectrophotometric method relative to control
[7] = target: T3, NAD kinase (Homo sapiens); assay: Inhibition of human NADK expressed in Escherichia coli BL21(DE3) assessed as reduction in NADP production at 400 uM using NAD as substrate by glucose-6-phosphate dehydrogenase coupled enzyme based spectrophotometric method relative to control

Row | Compound | Ki [1] [µM] | Activity [2] | Ki (NAD kinase [3]) [µM] | IC50 (NAD kinase [4]) [µM] | inhibition (Listeria monocytogenes) [%] | inhibition [5] [%] | inhibition [6] [%] | inhibition [7] [%]
1 | [N-]=[N+]=NC[C@H]1O[C@@H](n2c(SCC(=O)NCCc3cccc(Cl)c3)nc3c(N)ncnc32)[C@H](O)[C@@H]1O | 0.75 | Non-Toxic |  |  |  |  |  | 
2 | [N-]=[N+]=NC[C@H]1O[C@@H](n2c(SCC(=O)NCCc3ccc4ccccc4c3)nc3c(N)ncnc32)[C@H](O)[C@@H]1O | 5 | Non-Toxic | 140 |  |  |  |  | 
3 | [N-]=[N+]=NC[C@H]1O[C@@H](n2c(SCC(=O)NCc3cccc(Br)c3)nc3c(N)ncnc32)[C@H](O)[C@@H]1O | 25 | Non-Toxic |  | > 400 |  |  |  | 
4 | C[C@H]1O[C@@H](n2c(SCC(=O)NCCc3ccc(Cl)c(Cl)c3)nc3c(N)ncnc32)[C@H](O)[C@@H]1O | 1.5 | Non-Toxic | 180 |  |  |  |  | 
5 | [N-]=[N+]=NC[C@H]1O[C@@H](n2c(SCC(=O)NCc3ccnc(Cl)c3)nc3c(N)ncnc32)[C@H](O)[C@@H]1O |  | Non-Toxic | 220 | > 400 | 20 |  |  | 
6 | Nc1ncnc2c1nc(SCC(=O)NCCc1ccc(Br)cc1)n2[C@@H]1O[C@H](CO)[C@@H](O)[C@H]1O | 30 | Non-Toxic | 250 |  |  |  |  | 
7 | Nc1ncnc2c1nc(SCC(=O)NCCc1ccc(C(F)(F)F)cc1)n2[C@@H]1O[C@H](CO)[C@@H](O)[C@H]1O | 10 | Non-Toxic |  |  |  |  |  | 
8 | COc1ccc2[nH]cc(CCNC(=O)CSc3nc4c(N)ncnc4n3[C@@H]3O[C@H](CN=[N+]=[N-])[C@@H](O)[C@H]3O)c2c1 | 5 | Non-Toxic | 160 |  |  |  |  | 
9 | [N-]=[N+]=NC[C@H]1O[C@@H](n2c(SCC(=O)NCCc3ccc(Cl)c(Cl)c3)nc3c(N)ncnc32)[C@H](O)[C@@H]1O | 0.1 | Non-Toxic | 140 |  |  |  |  | 
10 | CN(C)S(=O)(=O)NC[C@H]1O[C@@H](n2c(SCC(=O)NCCc3ccc(Cl)c(Cl)c3)nc3c(N)ncnc32)[C@H](O)[C@@H]1O | 3.5 | Non-Toxic | 160 |  |  |  |  | 
11 | [N-]=[N+]=NC[C@H]1O[C@@H](n2c(SCC(=O)NCCc3ccc(C(F)(F)F)cc3)nc3c(N)ncnc32)[C@H](O)[C@@H]1O | 7.5 | Non-Toxic | 230 |  |  |  |  | 
12 | [N-]=[N+]=NC[C@H]1O[C@@H](n2c(SCC(=O)NCCc3c[nH]c4ccccc34)nc3c(N)ncnc32)[C@H](O)[C@@H]1O | 0.5 | Non-Toxic | 140 |  |  |  |  | 
13 | NC[C@H]1O[C@@H](n2c(SCC(=O)NCCc3ccc(Cl)c(Cl)c3)nc3c(N)ncnc32)[C@H](O)[C@@H]1O | 2 | Non-Toxic | 130 |  |  |  |  | 
14 | Nc1ncnc2c1nc(SCC(=O)NCCc1cccc(Br)c1)n2[C@@H]1O[C@H](CO)[C@@H](O)[C@H]1O | 2 | Non-Toxic | 335 | > 400 |  |  |  | 
15 | [N-]=[N+]=NC[C@H]1O[C@@H](n2c(SCC(=O)NCCCc3ccccc3)nc3c(N)ncnc32)[C@H](O)[C@@H]1O | 55 | Non-Toxic | 150 | > 400 |  |  |  | 
16 | Nc1ncnc2c1nc(SCC(=O)NCCc1ccc(Cl)cc1)n2[C@@H]1O[C@H](CO)[C@@H](O)[C@H]1O | 40 | Non-Toxic |  |  |  | 20 |  | 
17 | CCNC(=O)NC[C@H]1O[C@@H](n2c(SCC(=O)NCCc3ccc(Cl)c(Cl)c3)nc3c(N)ncnc32)[C@H](O)[C@@H]1O | 3 | Non-Toxic |  |  |  |  | 10 | 

Row | Compound | Ki [1] [µM] | Activity [2] | Ki (NAD kinase [3]) [µM] | IC50 (NAD kinase [4]) [µM] | inhibition (Listeria monocytogenes) [%] | inhibition [5] [%] | inhibition [6] [%] | inhibition [7] [%]
18 | C#CCNC(=O)CSc1nc2c(N)ncnc2n1[C@@H]1O[C@H](CN=[N+]=[N-])[C@@H](O)[C@H]1O | 30 | Non-Toxic | 140 | > 400 |  |  |  | 
19 | [N-]=[N+]=NC[C@H]1O[C@@H](n2c(SCC(=O)NCCc3cccc(C(F)(F)F)c3)nc3c(N)ncnc32)[C@H](O)[C@@H]1O | 6.5 | Non-Toxic | 300 |  |  |  |  | 
20 | [N-]=[N+]=NC[C@H]1O[C@@H](n2c(SCC(=O)NCCc3nc4ccccc4[nH]3)nc3c(N)ncnc32)[C@H](O)[C@@H]1O | 23 | Non-Toxic | 525 |  |  |  |  | 
21 | [N-]=[N+]=NC[C@H]1O[C@@H](n2c(SCC(=O)NCCc3c[nH]c4ccc(Cl)cc34)nc3c(N)ncnc32)[C@H](O)[C@@H]1O | 0.3 | Non-Toxic |  |  |  |  |  | 
22 | COc1ccc2[nH]cc(CCNC(=O)CSc3nc4c(N)ncnc4n3[C@@H]3O[C@H](CO)[C@@H](O)[C@H]3O)c2c1 | 40 | Non-Toxic |  |  |  |  |  | 
23 | Nc1ncnc2c1nc(SCC(=O)NCCc1cccc(Cl)c1)n2[C@@H]1O[C@H](CO)[C@@H](O)[C@H]1O | 30 | Non-Toxic | 200 |  |  |  |  | 
24 | Nc1ncnc2c1nc(SCC(=O)NCCc1c[nH]c3ccc(Cl)cc13)n2[C@@H]1O[C@H](CO)[C@@H](O)[C@H]1O | 0.25 | Non-Toxic | 775 |  |  |  |  | 
25 | Nc1ncnc2c1nc(SCC(=O)NCCc1ccc(Cl)c(Cl)c1)n2[C@@H]1O[C@H](CO)[C@@H](O)[C@H]1O | 22 | Non-Toxic | 425 |  |  |  |  | 
26 | [N-]=[N+]=NC[C@H]1O[C@@H](n2c(SCC(=O)NCCc3ccc(Cl)cc3)nc3c(N)ncnc32)[C@H](O)[C@@H]1O | 0.5 | Non-Toxic | 210 |  |  |  |  | 
27 | [N-]=[N+]=NC[C@H]1O[C@@H](n2c(SCC(=O)NCCc3ccc(Br)cc3)nc3c(N)ncnc32)[C@H](O)[C@@H]1O | 0.5 | Non-Toxic |  |  |  |  |  | 
28 | C#Cc1cccc(CCNC(=O)CSc2nc3c(N)ncnc3n2[C@@H]2O[C@H](CN=[N+]=[N-])[C@@H](O)[C@H]2O)c1 | 6 | Non-Toxic |  |  |  |  | 20 | 
29 | NC[C@H]1O[C@@H](n2c(SCC(=O)NCCc3ccc(Br)cc3)nc3c(N)ncnc32)[C@H](O)[C@@H]1O | 55 | Non-Toxic | 130 |  |  |  |  | 
30 | Cn1cc(CCNC(=O)CSc2nc3c(N)ncnc3n2[C@@H]2O[C@H](CN=[N+]=[N-])[C@@H](O)[C@H]2O)c2ccccc21 | 0.4 | Non-Toxic | 350 |  |  |  |  | 
31 | Nc1ncnc2c1nc(SCC(=O)NCCc1ccccc1)n2[C@@H]1O[C@H](CO)[C@@H](O)[C@H]1O | 140 | Non-Toxic |  | > 400 |  |  |  | 10
32 | Nc1ncnc2c1nc(SCC(=O)NCCc1c[nH]c3ccccc13)n2[C@@H]1O[C@H](CO)[C@@H](O)[C@H]1O | 2 | Non-Toxic |  |  |  | 20 |  | 
33 | Nc1ncnc2c1nc(SCCC(=O)NCCc1cccc(Br)c1)n2[C@@H]1O[C@H](CO)[C@@H](O)[C@H]1O | 50 | Non-Toxic |  | > 400 |  |  |  | 

Reference: ChEMBL document CHEMBL3875180, “8-Thioalkyl-adenosine derivatives inhibit Listeria monocytogenes NAD kinase through a novel binding mode” (Eur J Med Chem, 2016)
